Assay [1] concerns the target T1, D(2) dopamine receptor (Homo sapiens, UniProt P14416). Description: cAMP GloSensor Assay: HEK293T cells co-expressing the cAMP biosensor GloSensor-22F (Promega) and hD2 receptors were seeded (10,000 cells/20 ul/well) into white, clear-bottom, tissue culture plates in HBSS, 10% FBS, 20 mM HEPES, pH 7.4. After a one- to two-hour recovery, cells were treated with 10 ul of 3x test or reference drug prepared in HBSS, 10% FBS, 20 mM HEPES, pH 7.4. After 30 minutes, cells were challenged with 10 ul of 1,200 nM (4x) isoproterenol in 8% (4x) GloSensor reagent. Luminescence per well per second was read on a Wallac TriLux microbeta plate counter. Data were normalized to the isoproterenol response (100%) and the maximal quinpirole-induced inhibition thereof (0%) and regressed using the sigmoidal dose-response function built into GraphPad Prism 4.0. The assay is classed as functional, cell-based, HEK-293T.

The target of assay [2] is T1, D(2) dopamine receptor. Description: Beta-Arrestin Recruitment (Tango) Assay: Recruitment of β-arrestin to agonist-stimulated D2 receptors was performed using a previously described Tango-type assay (Barnea et al., Proc. Natl. Acad. Sci. USA 105:64 (2008)). Briefly, HTLA cells stably expressing β-arrestin-TEV protease and a tetracycline transactivator-driven luciferase were plated in 15-cm dishes in DMEM containing 10% fetal bovine serum and transfected (via calcium phosphate) with 20 μg of a D2V2-TCS-tTA construct (Barnea et al., Proc. Natl. Acad. Sci. USA 105:64 (2008)). The next day, cells were plated in white, clear-bottom, 384-well plates (Greiner, 10,000 cells/well, 50 μl/well) in DMEM containing 1% dialyzed fetal bovine serum. The following day, the cells were challenged with 10 μl/well of reference agonist (6 μM) or D2 test ligand (6 μM)±reference agonist prepared in HBS, 20 mM HEPES, pH 7.4, 18% DMSO (final ligand concentrations were 1 μM, final DMSO concentration was 3%). It is filed as functional, cell-based. (Activated receptors often draw arrestin, which recruitment assays turn into a signal.)

pEC50: −log10 of the molar value.

One may read the pEC50 as −log10 of the EC50, conventionally taken in molar units.

T1 sequence (P14416 whole entry): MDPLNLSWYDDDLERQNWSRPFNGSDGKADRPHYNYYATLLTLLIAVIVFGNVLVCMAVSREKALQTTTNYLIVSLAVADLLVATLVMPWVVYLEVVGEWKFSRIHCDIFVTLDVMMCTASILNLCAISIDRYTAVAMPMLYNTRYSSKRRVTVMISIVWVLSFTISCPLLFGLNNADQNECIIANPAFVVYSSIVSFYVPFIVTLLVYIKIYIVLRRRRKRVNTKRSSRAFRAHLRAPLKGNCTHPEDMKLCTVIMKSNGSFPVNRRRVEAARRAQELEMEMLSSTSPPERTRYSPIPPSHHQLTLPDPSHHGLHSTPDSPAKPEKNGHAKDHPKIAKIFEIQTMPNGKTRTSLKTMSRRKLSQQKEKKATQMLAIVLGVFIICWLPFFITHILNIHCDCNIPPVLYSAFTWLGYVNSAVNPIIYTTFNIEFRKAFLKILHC

As for `COc1ccccc1N1CCCN(CCCCOc2ccc3c(n2)NC(=O)CC3)CC1`, the pEC50 at D(2) dopamine receptor [1] is 6.65; at D(2) dopamine receptor [2] it was 8.21.
